We go through 30 compounds from PubChem BioAssay (NCI).

Molecules are shown by their SMILES.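 Protocol summary: plate cells (96-well), add compound at 5 concentrations, incubate 48 h, interpolate endpoints linearly. GI50 is the concentration that inhibits growth by half. TGI: concentration producing complete growth inhibition.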 Bounds are passed on as bounds.

Common to all, as to experiment: NCI-60 cell line screen, 48 h
In test [1] the test system is OVCAR-5 ovarian.
In test [2] the test system is LOX IMVI melanoma.
For test [3], the system named is UO-31 renal.
Test [4] deals with HT29 colon.
Test [5] relates to OVCAR-4 ovarian.
The subject of test [6] is ACHN renal.
Test [7] has as its system NCI-H522 lung.
In test [8] the test system is KM12 colon.
Test [9] has as its system U251 CNS.

For the compound `CN1CCC(O)C(CNC23CC4CC(CC(C4)C2)C3)C1` (configuration not stated), the TGI in [1], in test [2], in test [3], in test [4], in test [5] and in test [6] was over 100 µM throughout. For the same compound, the TGI in [7], in [8] and in [9] was over 100 µM in each case.
On to `COc1ccc(CN(O)C2C(CO)OC(n3cc(I)c(=O)[nH]c3=O)C2O)cc1` (configuration not stated), for which the TGI in [1], in test [2], in [3], in test [4], in [5] and in test [6] was over 100 µM throughout. The TGI in test [7], in test [8] and in test [9] was over 100 µM in each case.
Take `CCN(CC)CCN(C)CC(C)(C)C(=O)/C=C/c1ccccc1`: the TGI in test [1] worked out at 26.9 µM; in [2] it was 24 µM; in test [3], 26.2 µM; in test [4], 24.9 µM; in [5], 24.3 µM; in test [6], 26.5 µM. Further, the results for the TGI in [7], in test [8] and in [9] were 21.4 µM, 25.4 µM and 22.1 µM, respectively.
`C=C1C(=O)OC2C1C(OC(=O)/C(=C/C)COC(C)=O)CC1(CO1)C1C(OC(=O)/C(=C/C)CO)C=C(C)C21` (configuration not stated): the TGI was determined as 25.9 µM in test [1]; 11.9 µM in test [2]; 11.2 µM in test [3]; 7.48 µM in test [4]; 7.53 µM in [5]; 4.4 µM in test [6]. For the same compound, the TGI in test [8] turned out to be 15.3 µM; in [9], 35.1 µM.
With `O=C(CC1Sc2ccccc2NC1=O)Nc1cccc(Cl)c1` (configuration not stated), the TGI in test [1] was over 100 µM; in test [2], 48.2 µM; in test [3] it was 82.5 µM; in [4], over 100 µM; in test [5], over 100 µM; in test [6], over 100 µM. For the same compound, in test [9], the TGI stood at 82.8 µM.
On to `CC(C)NC(=O)OCc1nnn2c1C(OC(=O)NC(C)C)CC2` (configuration not stated), for which the TGI in test [1], in test [3], in [4], in test [5], in test [7] and in test [8] was over 100 µM each time. In test [9], this compound returned a TGI of over 100 µM.
On to `COCCNC(=O)C1C(=O)N(CCOC)C(=O)/C1=N/N` (configuration not stated), for which the TGI in test [2], in [3], in [4], in test [6], in test [7] and in test [8] was over 100 µM each time. For the same compound, in test [9], the TGI is over 100 µM.
As for `CCCCNC(=S)Nn1c(-c2ccccc2)nc2ccccc2c1=O`, the TGI in test [1], in test [2], in test [3], in [4], in test [5] and in test [6] was over 100 µM in each case. For the same compound, the TGI in [7], in [8] and in test [9] was over 100 µM in each case.
Consider `COc1ccc(C(=O)O/N=C2\CCCC\C2=C/c2ccccc2)cc1`, for which the TGI in test [2] is over 100 µM; in test [3], over 100 µM; in [4] it was over 100 µM; in test [5], 95.8 µM; in [6] it was over 100 µM; in test [9], over 100 µM.
As for `CC(=O)NNc1nc(C)c(C(/C=C/c2ccc(/C=C/C(=N\NC(=O)c3ccncc3)c3sc(NNC(C)=O)nc3C)cc2)=N/NC(=O)c2ccncc2)s1`, the TGI in test [1], in test [2], in [3], in test [4], in test [6] and in test [8] was over 100 µM in each case. Besides, the TGI in test [9] is over 100 µM.
As for `CCOC(=O)c1cc2c(n1Cc1cccc(OC)c1)-c1oncc1CC2`, the GI50 in test [1] is 17.9 µM; in test [2] it was 0.794 µM; in [3] it was 1.91 µM; in [4], 0.37 µM; in [5], 9.6 µM; in [6] it was 2.66 µM. Moreover, the GI50 is 0.237 µM in [7], 0.55 µM in test [8] and 0.909 µM in [9]. Also, the TGI in [1] is over 100 µM; in [2] it was over 100 µM; in test [3], 78.5 µM; in test [4], 15.8 µM; in [5], over 100 µM; in test [6], over 100 µM. Also, the TGI in test [7] is 1.42 µM; in test [8], over 100 µM; in test [9] it was over 100 µM.
As to `CCS[C@H]1NC(=O)C1[C@H](C)O[Si](C)(C)C(C)(C)C` (some centres not stated), the TGI in test [1], in test [2], in [4], in [5], in [6] and in test [8] was over 100 µM throughout. Moreover, the TGI in [9] is over 100 µM.
For the compound `COC(=O)C1Cc2c([nH]c3ccccc23)[C@H](CC(C)C)N1` (some centres not stated), the TGI in [1], in [2], in test [3], in [4], in test [6] and in test [7] was over 100 µM each time. Also, the TGI in test [8] and in test [9] was over 100 µM in each case.
Turning to `CC(=O)OC1COC(N2C(=O)C(=O)c3c(C)cc(Cl)nc32)C(OC(C)=O)C1OC(C)=O` (configuration not stated), the TGI in test [1], in test [2], in test [3], in test [4], in test [5] and in [6] was over 100 µM throughout. The TGI in test [8] and in test [9] was over 100 µM throughout.
As to `CCCCN(CCCC)C(=Nc1ccccc1)N(CCCC)CCCC`, the TGI in test [1] is 27.8 µM; in [2], 13.6 µM; in [3], 14.3 µM; in test [4], over 100 µM; in [6], 82 µM; in test [7], 7.41 µM. In addition, the TGI in test [8] amounted to 22.6 µM; in [9], 17.4 µM.
As to `COC(=O)C(=O)C(C#N)c1cccc2ccccc12` (configuration not stated), the TGI in [1], in test [2], in [3], in [4], in [5] and in test [6] was over 100 µM throughout. Also, the TGI in test [7] is over 100 µM; in [8], 99.7 µM; in test [9], over 100 µM.
`COc1ccc(C(=O)c2cc3c(N)c(C(=O)Nc4cccc(Cl)c4)sc3nc2C)cc1`: the GI50 is 1.69 µM in [1]; 2.39 µM in test [2]; 2.5 µM in test [3]; 1.2 µM in [4]; 9.48 µM in test [5]; 2.12 µM in [6]. For the same compound, the results for the GI50 in test [7], in test [8] and in test [9] were 1.1 µM, 1.25 µM and 1.38 µM, respectively. Further, the TGI in test [1], in [2], in [3], in [4], in [5] and in [6] was over 33.3 µM in each case. Moreover, the TGI in test [7], in test [8] and in test [9] was over 33.3 µM in each case.
For the compound `O=C(CC(O)(c1ccccc1)c1ccc(Cl)cc1)NC(=O)c1ccccc1O` (configuration not stated), the TGI in test [1] was 8.95 µM; in [2] it was 23.3 µM; in test [3], 6.75 µM; in [4], 53 µM; in [5], over 100 µM; in [6], 99 µM. For the same compound, the TGI in test [7] was found to be 14.9 µM; in test [8], 21.9 µM; in test [9], 26.5 µM.
As to `CCCOC(=O)C1CCC(=O)N1C(=O)C(Cl)Cl` (configuration not stated), the TGI in [1], in test [2], in [3], in test [4], in test [5] and in [6] was over 100 µM in each case. Moreover, the TGI in [7], in [8] and in test [9] was over 100 µM throughout.
Regarding `CN(C)CCCn1cnc2ncccc2c1=O`, the TGI in [1], in [2], in [3], in test [4], in test [5] and in [6] was over 100 µM throughout. Besides, the TGI in test [7], in test [8] and in test [9] was over 100 µM each time.
Consider `CCOC(=O)C(C(=O)c1ccccc1-c1ccccc1C(=O)O)=P(c1ccccc1)(c1ccccc1)c1ccccc1`, for which the TGI in test [2] was 40.8 µM; in test [4] it was over 100 µM; in [5] it was 43.6 µM; in [6], over 100 µM; in test [9] it was 36.8 µM.
Turning to `O=C(c1ccccc1)c1nnn(Cc2cccc(Cl)c2)c1C(=O)c1ccccc1`, the TGI in test [1], in test [2], in test [3], in test [4], in [5] and in test [6] was over 100 µM each time. Also, the TGI in test [7], in [8] and in test [9] was over 100 µM each time.
Consider `COc1ccc(NC(=O)CC/C(CC(=O)c2ccco2)=N/Nc2ccc([N+](=O)[O-])cc2[N+](=O)[O-])cc1`, for which the TGI in test [1], in test [2], in test [3], in test [4], in test [5] and in test [6] was over 100 µM each time. Further, the TGI in test [7], in test [8] and in test [9] was over 100 µM throughout.
With `COC1CCC(=C2C(=O)OC(C)(C)OC2=O)N1` (configuration not stated), the TGI in test [1], in test [2], in [3], in [4], in test [5] and in test [6] was over 100 µM each time. In addition, the TGI in test [7], in test [8] and in test [9] was over 100 µM in each case.
Take `Cc1c(C(=O)/C=C/c2ccco2)[n+](=O)c2ccccc2n1[O-]`: the TGI in test [1], in [2], in test [3], in test [4], in test [6] and in [7] was over 100 µM in each case. Besides, the TGI in test [8] is over 100 µM.
With `COC(=O)C1=Cc2cc3c(cc2[C@H](c2ccc4c(c2)OCO4)C1C(=O)OC)OCO3` (some centres not stated), the TGI in test [1], in test [2], in [3], in [4], in test [5] and in test [6] was over 100 µM throughout. For the same compound, the TGI in [8] and in test [9] was over 100 µM in each case.
Turning to `N#Cc1c([N+](=O)[O-])cc(C(F)(F)F)cc1[N+](=O)[O-]`, the TGI came to 32.5 µM in [1]; 6.87 µM in [2]; 33.5 µM in [3]; 9.36 µM in [4]; 5.57 µM in [5]; 20 µM in test [6]. In addition, the TGI in test [7] stood at 1.24 µM; in test [8], 12.4 µM; in [9], 33.7 µM.
Consider `COC1OC(OC)C2C(c3c(C)cc(C)cc3C)=NOC12` (configuration not stated), for which the TGI in test [1], in [2], in [3], in test [4], in test [5] and in [6] was over 100 µM each time. Moreover, the TGI in [7], in test [8] and in [9] was over 100 µM in each case.
Take `O=c1[nH]nc(-c2ccccc2)c(-c2ccccc2)c1-n1nc(-c2ccccc2)c2ccccc2c1=O`: the TGI in [1], in test [3], in test [4], in [5], in [6] and in test [7] was over 100 µM in each case. The TGI in test [8] and in [9] was over 100 µM each time.
Take `CCc1ccc(Cc2ccc(CC)c(NC(=O)C(=O)Cc3nc4ccccc4nc3C)c2CC)c(CC)c1NC(=O)C(=O)Cc1nc2ccccc2nc1C`: the TGI in [1] is over 100 µM; in test [2], over 100 µM; in [3], 72.8 µM; in test [5], over 100 µM; in [6] it was over 100 µM; in [7] it was over 100 µM. The TGI in [8] and in test [9] was over 100 µM throughout.
